In patent US20240398801A1, “TREATMENT OF LEUKEMIA BASED ON LEUKEMIA HIERARCHY IN A PATIENT” (UNIVERSITY HEALTH NETWORK, priority 2021, published 2024):

Columns and labels:
[1] = tested on: human AML cells; assay: Changes in cell type composition after drug treatment (deconvolution of RNA-seq from preclinical studies); type: cell-based
Description: To identify RNA-seq datasets collected from AML samples before and after drug treatment, Applying the search terms “Acute Myeloid Leukemia” and “AML” with the “Homo sapien” and “RNA-sequencing” flags on Gene Expression Omnibus (GEO) and ArrayExpress, we identified 95 datasets posted before Jun. 17, 2021. From these, 53 were inhibitors that met the inclusion criteria of human AML samples with available RNA-sequencing data collected before and after drug treatment. Datasets with only differential expression results or Bigwig files were excluded. Datasets with less than three samples in each treatment group were also excluded, resulting in a total of 47 datasets included in the final analysis. Each dataset was processed and underwent TPM normalization and deconvolution with CIBERSORTx using a signature matrix of seven malignant cell types (LSPC-Quiescent, LSPC-Primed, LSPC-Cycle, GMP-like, ProMono-like, Mono-like, cDC-like). For quality control among cell line samples, the deconvolution correlation values from each sample across every dataset were compared and the jenks natural breaks algorithm was employed to identify cutoffs demarcating low, medium, and high correlation bins. Cell line samples classified as “low-correlation” with a correlation value below 0.437 were excluded from further analysis, leaving 42 datasets spanning 153 treatment conditions.
Relative changes in cell type abundance in each treatment condition were evaluated using Wilcoxon rank-sum tests for technical replicates or Wilcoxon signed-rank tests for biological replicates with paired treatment conditions. For dimensionality reduction with UMAP, we focused exclusively on changes in cell type abundance where the p-value was <0.05 to emphasize the key changes in cell type composition induced by each drug, resulting in 125 treatment conditions spanning 38 studies. Absolute log p-values were used to represent the magnitude of shift in cell type abundance, and cell type changes where p>0.05 were assigned a magnitude of zero. […]

[2] = tested on: AML engraftment; assay: Patient-derived xenograft (PDX) response of AML patient samples to fedratinib, CC-90009 or their combination; type: in vivo, NOD.SCID mice; settings: for response rate: PDX
Experimental: Using normalized malignant cell type composition data for 46 patient samples used for in vivo fedratinib or CC-90009 treatment, dimensionality reduction was performed and clustering was assigned using the leiden algorithm with a resolution of 0.7, yielding three clusters: Primitive, Mature, Intermediate/GMP. […] Samples were subsequently projected on the reference map for visualization and confirmation of cluster assignments.
Patient samples were classified into response categories by comparing the relative reduction (RR) of AML engraftment in drug-treated mice versus vehicle-treated mice, as per Galkin et al 98. RR was calculated as: ((mean % engraftment in control mice)−(mean % engraftment in drug treated mice))/(mean % engraftment in control mice). Patient samples were classified as Responders if RR in the injected femur (Right Femur, RF) was >50%, classified as Partial Responders if we observed 20 to 50% RR in the RF or >20% in the non-injected femur (Bone Marrow, BM) only, and classified as Non-Responders if there was no statistically significant difference in engraftment levels between control- and drug-treated mice, or if RR was <20% in both RF and BM.
Samples with unknown NPM1 mutation status were subsequently assigned as NPM1 mutant or NPM1 wild-type according to their cluster membership.
NOD.SCID mice were bred and housed in the University Health Network (UHN) animal care facility and all animal experiments were performed in accordance with guidelines approved by the UHN animal care committee. Ten-week-old NOD.SCID mice were irradiated (225 cGy) and pretreated with anti-CD122 antibody (200 μg per mouse), 24 hours prior to transplantation. Viably frozen mononucleated cells from AML patients were thawed, counted, and intrafemorally injected at the dose of 5 million cells per mouse. At day 21 post transplantation, treatment of either CC-90009 or Fedratinib alone with vehicle, or in combination, was initiated twice a day for 2 weeks. CC-90009 was given by intraperitoneal (IP) injections at the dose of 2.5 mg/kg and Fedratinib was dissolved in 0.5% methylcellulose and orally gavaged at 60 mg/kg. Following treatment, levels of AML engraftment were assessed to determine the efficacy of drug treatment against the disease in the mice. Cells collected from the injected right femur, non-injected bone marrow of each individual mouse were stained with human specific antibodies and evaluated by flow cytometry. Antibodies used for assessment of human AML engraftment include: CD45-APC, CD33-PE-Cy5, CD19-V450, CD34-APC-Cy7, CD15-FITC (BD), CD33-PE-Cy5, and CD14-PE (Beckman Coulter).

[3] = tested on: primary AML samples; assay: Association of LinClass-7 / LSC17 score with ex vivo drug sensitivity in primary AML drug screens; type: cell-based, human
Experimental: Ex vivo drug response in BEAT-AML samples was measured through the Area Under the dose-response Curve (AUC) metric, wherein a low AUC corresponds to sensitivity while a high AUC corresponds to resistance. AUC values were scaled and multiplied by −1 to represent sensitivity in each treatment condition. Pearson correlation was used to measure association between cell type abundance and drug sensitivities, following recommendations from a benchmarking study by Smirnov et al^97. Associations were depicted using the R package “corrplot”, and drug sensitivity volcano plots were generated using the R package “EnhancedVolcano”. For associations of cell type abundance with clinical and biological features, absolute cell type abundance was always used and pearson correlations were calculated unless otherwise specified.
To derive the LinClass-7 score, logCPM-normalized expression of 16 genes from the LSC17 assay were used as input features for LASSO regression: DNMT3B, GPR56, NGFRAP1, CD34, DPYSL3, SOCS2, MMRN1, KIAA0125, EMP1, NYNRIN, LAPTM4B, CDK6, AKR1C3, ZBTB46, CPXM1, ARHGAP22. The 17th gene, C19orf77, was excluded due to lack of expression data in the Leucegene cohort. LASSO regression was performed on negative PC2 (high in Primitive and low in Mature) with leave-one-out cross validation using the LassoCV function from scikit-learn with a path length of 0.1. Patients from TCGA and Leucegene were combined into a training set, and patients from BEAT-AML were used as a validation set to evaluate the strength of the association between LinClass-7 and PC2.

[4] = tested on: primary AML samples; assay: Selinexor in vivo treatment of primary AML samples, cell type abundance by RNA-seq deconvolution; design: species or system NSG mice; settings: primary AML samples treated in vivo
Experimental: RNA was extracted from bulk peripheral blood mononuclear cells using an RNeasy Micro Kit (Qiagen). Libraries were constructed using SMART-Seq (Clonetec). A paired-end 50-base-pair flow-cell lane Illumina HiSeq 2000 yielded an average of 240 million aligned reads per sample. To align RNA-seq reads from samples used in selinexor and fedratinib treatments, Illumina paired-end sequence data were analyzed with BWA/v0.6 alignment software with option (-s) to disable Smith-Waterman alignment. Reads were mapped onto GRCh37-lite reference genome and exon-exon junction reference whose coordinates were defined based on transcript annotations in Ensembl/v59. Reads with mapping quality <10 were discarded and duplicate reads were tagged using the Picard's MarkDuplicates program. JAGuaR 2.1 was used to incorporate reads spanning multiple exons into the alignment by introducing large alignment gaps. All transcripts of a given gene were collapsed into a single gene model such that exonic bases were the union of exonic bases that belonged to all known transcripts of the gene. Read counts and subsequently RPKM counts were obtained by counting the fraction of each read that overlapped with an exonic region for that gene. To align RNA-seq reads from functionally annotated LSC fractions, sequence data was aligned against GRCh38 and transcript sequences downloaded from Ensembl build 90 using STAR 2.5.2a. […]

[5] = tested on: AML; assay: Subgroup analysis of the ALFA-0701 trial by LinClass-7 score; type: in vivo, human
[6] = AMLs with Intermediate/GMP hierarchies
[7] = AMLs with Primitive hierarchies
[8] = added to standard chemotherapy vs chemotherapy alone, LinClass-7 low (mature) AML

Compound: CC1=C(/C=C/C(C)=C/C=C/C(C)=C/C(=O)O)C(C)(C)CCC1 [ATRA]
- blast population from which differentiation is induced [1]: predominantly from GMP-like blasts

Compound: Cc1c(-c2ccc(-c3ccccc3F)cc2)nc2ccc(F)cc2c1C(=O)O [Brequinar]
- Quiescent LSPC abundance after treatment ([1]; accompanying induced differentiation): reduction

Compound: O=C1CCC(N2Cc3cc(CNC(=O)C(F)(F)c4ccc(Cl)cc4)ccc3C2=O)C(=O)N1 (stereo not drawn) [CC-90009]
- response rate [2, 6]: 83%
- response rate ([2]; AMLs with Mature hierarchies): 88%
- response rate [2, 7]: 40%
- response among Primitive AMLs ([2]; Primitive AMLs lacking NPM1c mutation and ETC signatures): favorable response
- response among Primitive AMLs ([2]; Primitive AMLs with NPM1c mutations and electron transport chain signatures): poor response

Compound: FC(F)(F)c1ccc(/C=C/c2nc(COc3ccc(CCCCn4ccnn4)cc3)co2)cc1 [Mubritinib]
- blasts targeted, from correlation of LinClass-7 score with drug sensitivity ([3]; drug screens of Tyner et al and Lee et al): primitive blasts
- difference in ex vivo sensitivity between patient samples with high and low score ([3]; split by LSC17): no significant difference
- difference in ex vivo sensitivity between patient samples with high and low score ([3]; split by LinClass-7): stark differences

Compound: CC1(C)CCC(c2ccc(Cl)cc2)=C(CN2CCN(c3ccc(C(=O)NS(=O)(=O)c4ccc(N[C@H](CCN5CCOCC5)CSc5ccccc5)c(S(=O)(=O)C(F)(F)F)c4)cc3)CC2)C1 [Navitoclax]
- difference in ex vivo sensitivity between patient samples with high and low score ([3]; split by LSC17): no significant difference
- difference in ex vivo sensitivity between patient samples with high and low score ([3]; split by LinClass-7): stark differences

Compound: O=C(/C=C\n1cnc(-c2cc(C(F)(F)F)cc(C(F)(F)F)c2)n1)NNc1cnccn1 [Selinexor]
- Cycling LSPC population after treatment ([1]; primary AML samples treated in vitro): depletion
- Cycling LSPC population after treatment [4]: depletion

Compound: Cc1cnc(Nc2ccc(OCCN3CCCC3)cc2)nc1Nc1cccc(S(=O)(=O)NC(C)(C)C)c1 [fedratinib]
- response rate [2, 6]: 20%
- response rate ([2]; AMLs with Mature hierarchies): 88%
- response rate [2, 7]: 46%

Compound: Gemtuzumab Ozogamicin [GO]
- event-free survival [5, 8]: significantly longer
- relapse-free survival [5, 8]: significantly longer
- survival benefit ([5]; added to standard chemotherapy, LinClass-7 high primitive AML): no significant survival benefit
- overall survival ([5]; added to standard chemotherapy, LinClass-7 low (mature) AML): did not extend
